Key:
Plasma Kallikrein = Plasma Kallikrein (Homo sapiens (Human), UniProt P03952); assay: Determination of related protease inhibition: Plasma Kallikrein (fluorogenic substrate at Km); format: biochemical; conditions: 25° C., read-out: IC50 (human PKal)
Procedure, shortened: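 IC50 derived as the concentration halving uninhibited activity, from linear fluorescence increase per minute monitored 5 min at 25 °C. Each human protease was run with its fluorogenic substrate at Km concentration across a range of test compound concentrations.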

Human Factor XIIa = Human Factor XIIa (Homo sapiens (Human), UniProt P00748); assay: Determination of FXIIa inhibition (fluorogenic substrate H-DPro-Phe-Arg-AFC, IC50 assay); format: biochemical; conditions: substrate H-DPro-Phe-Arg-AFC at Km, 25° C.; class scale A-G
Procedure, shortened: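 IC50 derived from % remaining activity, taken as the linear fluorescence rate over a 5 min read at 25° C. Substrate H-DPro-Phe-Arg-AFC was used at its Km (Michaelis-Menten) with human FXIIa and serial compound dilutions, 25° C.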

Sequence of Plasma Kallikrein (P03952 391-638): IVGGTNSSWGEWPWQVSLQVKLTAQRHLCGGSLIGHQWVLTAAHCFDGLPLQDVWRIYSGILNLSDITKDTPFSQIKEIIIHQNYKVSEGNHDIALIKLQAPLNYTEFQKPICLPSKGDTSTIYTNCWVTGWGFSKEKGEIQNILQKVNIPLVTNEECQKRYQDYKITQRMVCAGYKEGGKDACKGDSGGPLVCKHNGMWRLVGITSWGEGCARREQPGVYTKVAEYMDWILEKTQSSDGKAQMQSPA
Sequence of Plasma Kallikrein (P03952 20-390 partner): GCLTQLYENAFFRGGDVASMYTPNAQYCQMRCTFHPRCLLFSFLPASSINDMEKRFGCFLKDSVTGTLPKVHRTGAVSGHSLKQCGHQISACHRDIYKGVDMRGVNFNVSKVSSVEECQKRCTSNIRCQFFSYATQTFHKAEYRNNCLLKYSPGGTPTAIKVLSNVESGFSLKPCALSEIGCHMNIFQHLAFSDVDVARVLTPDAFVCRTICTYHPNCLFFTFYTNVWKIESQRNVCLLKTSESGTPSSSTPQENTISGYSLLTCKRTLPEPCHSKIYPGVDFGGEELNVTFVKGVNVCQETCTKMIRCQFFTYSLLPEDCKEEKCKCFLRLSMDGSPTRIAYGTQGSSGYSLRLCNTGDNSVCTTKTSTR
Sequence of Human Factor XIIa (P00748 373-615): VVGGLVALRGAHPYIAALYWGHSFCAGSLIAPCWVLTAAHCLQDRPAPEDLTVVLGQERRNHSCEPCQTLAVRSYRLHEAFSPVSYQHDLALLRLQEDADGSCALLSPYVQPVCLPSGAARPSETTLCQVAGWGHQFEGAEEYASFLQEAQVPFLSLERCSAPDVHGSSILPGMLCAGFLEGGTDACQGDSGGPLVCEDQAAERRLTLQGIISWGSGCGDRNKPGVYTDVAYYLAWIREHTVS

CC(C)(O)c1cnc2n1CCN(c1ccc(CNc3cccc4c(N)nccc34)cn1)C2 [Example 1167, 2-(7-(5-(((1-aminoisoquinolin-5-yl)amino)methyl)pyridin-2-yl)-5,6,7,8-tetrahydroimidazo[1,2-a]pyrazin-3-yl)propan-2-ol]
IC50 (Plasma Kallikrein): > 40 µM | IC50 (Human Factor XIIa): 3 to 10 µM

CC(C)(O)[C@@H]1CCN(c2ccc(CNc3cccc4c(N)nccc34)cn2)C1 [Example 1130, (R)-2-(1-(5-(((1-aminoisoquinolin-5-yl)amino)methyl)pyridin-2-yl)pyrrolidin-3-yl)propan-2-ol]
IC50 (Plasma Kallikrein): > 40 µM | IC50 (Human Factor XIIa): 3 to 10 µM

CN1CCC(CNc2ccc(CNc3ccc4cncc(N5CCCCC5)c4c3)cn2)CC1 [Example 1198, N-((6-(((1-methylpiperidin-4-yl)methyl)amino)pyridin-3-yl)methyl)-4-(piperidin-1-yl)isoquinolin-6-amine]
IC50 (Plasma Kallikrein): > 40 µM | IC50 (Human Factor XIIa): 40 to 100 µM

Nc1nccc2c(NCc3ccc(N4Cc5nccn5CC4CO)nc3)cccc12 (stereo not shown) [Example 1137, (7-(5-(((1-aminoisoquinolin-5-yl)amino)methyl)pyridin-2-yl)-5,6,7,8-tetrahydroimidazo[1,2-a]pyrazin-6-yl)methanol]
IC50 (Plasma Kallikrein): > 40 µM | IC50 (Human Factor XIIa): 1 to 3 µM

Nc1ncc(Cl)c2cc(NCc3ccc(N4CCn5ncc(O)c5C4)nc3)ccc12 [Example 1267, 5-(5-(((1-amino-4-chloroisoquinolin-6-yl)amino)methyl)pyridin-2-yl)-4,5,6,7-tetrahydropyrazolo[1,5-a]pyrazin-3-ol]
IC50 (Plasma Kallikrein): > 40 µM | IC50 (Human Factor XIIa): 3 to 10 µM

CN1CCC(CNc2ccc(CNc3ccc4c(N)ncc(F)c4c3)cn2)CC1 [Example 1195, 4-fluoro-N6-((6-(((1-methylpiperidin-4-yl)methyl)amino)pyridin-3-yl)methyl)isoquinoline-1,6-diamine]
IC50 (Plasma Kallikrein): 3 to 10 µM | IC50 (Human Factor XIIa): 0.1 to 0.3 µM

CC(C)(O)c1cn2c(n1)CN(c1ccc(CNc3cccc4c(N)nccc34)cn1)CC2 [Example 1163, 2-(7-(5-(((1-aminoisoquinolin-5-yl)amino)methyl)pyridin-2-yl)-5,6,7,8-tetrahydroimidazo[1,2-a]pyrazin-2-yl)propan-2-ol]
IC50 (Plasma Kallikrein): > 40 µM | IC50 (Human Factor XIIa): 3 to 10 µM

CN1CCC(COc2cc(CNc3cnc4[nH]cc(C#N)c4c3)ccn2)CC1 [Example 4460]
IC50 (Plasma Kallikrein): > 100 µM | IC50 (Human Factor XIIa): 40 to 100 µM

Nc1nccc2c(NCc3ccnc(N4CCn5ccnc5C4)c3)cccc12 [Example 5436, N5-((2-(5,6-dihydroimidazo[1,2-a]pyrazin-7(8H)-yl)pyridin-4-yl)methyl)isoquinoline-1,5-diamine]
IC50 (Plasma Kallikrein): > 40 µM | IC50 (Human Factor XIIa): 10 to 40 µM

Nc1nccc2cc(NCc3ccnc(OCC4CCn5ccnc5C4)c3)ncc12 (stereo not shown) [Example 4429, N6-[[2-(5,6,7,8-tetrahydroimidazo[1,2-a]pyridin-7-ylmethoxy)-4-pyridyl]methyl]-2,7-naphthyridine-1,6-diamine]
IC50 (Plasma Kallikrein): 3 to 10 µM | IC50 (Human Factor XIIa): 1 to 3 µM

CN1CCN(c2cc(CNc3ccc4c(N)ncc(Cl)c4c3)ccn2)CC1 [Example 4427, 4-chloro-6-N-{[2-(4-methylpiperazin-1-yl)pyridin-4-yl]methyl}isoquinoline-1,6-diamine]
IC50 (Plasma Kallikrein): > 40 µM | IC50 (Human Factor XIIa): 10 to 40 µM

From patent US20240059691A1 (KALVISTA PHARMACEUTICALS LIMITED, priority 2020, published 2024)
